Reference: patent US20100112600A1, “Methods and compositions for modulating synapse formation” (priority 2006, published 2010)
Blank lines part the entries; values can stand above or below the molecule they belong to.

Assays:
Nur77 promoter = assay: Nur77-luciferase reporter gene assay in granule neurons; type: cell-based, rat; conditions: depolarized granule neurons
Method: FIG. 5C is a bar graph. […] Treatment with CsA prevented depolarization-induced expression of the WT Nur77-luciferase reporter gene (p<0.0001, ANOVA; n=6), but had no effect on MREmut Nur77-luciferase reporter gene.
(§1) Luciferase assays were performed as described (Shalizi et al., 2006, Science 311: 1012-1017) with minor modifications. Granule neurons were transfected with the reporter constructs pNur77-luc or pNur77mut-luc and pRL-TK and the indicated hpRNA expression plasmids, and an expression construct for Bcl-XL. Granule neurons were switched from full medium to fresh BME supplemented with 5% calf serum (Hyclone) 72 hours after transfection and incubated overnight. 293T cells maintained as described were cotransfected with p5G4luc or pMEF2×3luc and pRL-TK reporter constructs and the indicated expression plasmids by DNA-calcium phosphate precipitation. Fresh growth media was added within 24 hours of transfection. Cells were lysed 48 hours after transfection. In both neurons and 293T cells, firefly-and renilla-luciferase activities were determined using a dual-luciferase assay kit (Promega) according to the manufacturers instructions.
Primary rat cerebellar granule neurons were transfected with the U6/piasx1, U6/piasx2, or control U6 RNAi plasmid together with a luciferase reporter gene controlled by the Nur77 promoter containing two MEF2 response elements (MREs). […]

MEF2A Ser408 = assay: Immunoblot of phospho-Ser408 MEF2A in depolarized granule neurons; type: cell-based, rat; conditions: granule neurons depolarized with 25 mM KCl; Nim 20 μM, CsA 4 μM
Method: Lysates of granule neurons were depolarized with 25 mM KCl were immunoblotted for MEF2A, phospho-Ser408 MEF2A or ERK1/2. Nim=Nimodipine, 20 μM.
Cultures of primary granule neurons were isolated from P6 Long-Evans rats using known methods. Granule neurons were maintained in full medium (BME+10% calf serum (Hyclone), 1 mM each penicillin, streptomycin and L-glutamine and 25 mM KCl). Granule neurons were transfected in DMEM by DNA-calcium phosphate precipitation using standard methods.

endogenous MEF2A = assay: Immunoblot of sumoylation and acetylation of endogenous MEF2A in depolarized granule neurons; type: cell-based, rat
Method: In FIG. 3F, granule neurons in non-depolarizing concentrations of KCl (5 mM) were lysed in the presence or absence of the isopeptidase inhibitor N-ethylmaleimide (NEM) and immunoblotted for MEF2A. […] In FIG. 3G, granule neurons are exposed to media containing non-depolarizing (5 mM) or depolarizing (25 mM) concentrations of KCl in the presence of nimodipine (Nim) or its control vehicle (DMSO) were lysed in the presence of NEM and immunoblotted as in FIG. 3F. […] Cultures of primary granule neurons were isolated from P6 Long-Evans rats using known methods. Granule neurons were maintained in full medium (BME+10% calf serum (Hyclone), 1 mM each penicillin, streptomycin and L-glutamine and 25 mM KCl).

[1] = tested on: MEF2-response elements (MRE-luciferase); assay: MRE-luciferase reporter gene assay in cells; type: cell-based; conditions: co-transfected expression plasmid
Method: FIG. 4B is a bar graph and a series of immunoblots. Cells coexpressing MEF2A and increasing amounts of MEF2A-SUMO together with a 3-MRE luciferase reporter gene (pMEF2×3-luc) and pRL-TK. […] Lysates were also immunoblotted for MEF2 or ERK1/2.
as §1
Sumoylation of MEF2A represses MEF2-dependent transcription. The effect of PIASx expression on MEF2-dependent transcription in cells was examined. […]

[2] = tested on: granule neuron dendritic claws; assay: Dendritic claw number of granule neurons in organotypic cerebellar slices; type: cell-based, rat
Method: The role that MEF2A plays in synaptic dendritic development in the cerebellar cortex was determined. […] To visualize granule neurons undergoing postsynaptic differentiation, organotypic cerebellar slices prepared from postnatal day 9 (P9) rat pups were transfected with an expression plasmid encoding green fluorescent protein (GFP). Transfected granule neurons in the internal granular layer (IGL) had the typical small cell body with associated parallel axonal fibers and few dendrites (FIGS. 1A and 1B). Many dendrites harbored structures with the appearance of dendritic claws that were identified based on classic descriptions as: (i) located at the end of a dendrite, (ii) having cup- or sickle-like appearance, and (iii) displaying undulating or serrated inner surfaces (FIGS. 1C and 1D). […] The effect of MEF2A knockdown on granule neuron dendritic morphogenesis was next determined. Cerebellar slices were transfected with the U6/mef2a plasmid that encodes MEF2A hairpin RNAs (MEF2AhpRNA) or the control U6 plasmid together with a GFP expression plasmid.
Slices were prepared and processed using known methods. […]
Microscopy was carried out using standard methods. […] Images of transfected granule neurons were analyzed using SPOT software for dendritic length, number of primary dendrites, and number of branches per primary dendrite as described.

MREmut Nur77-luciferase reporter gene (Nur77 promoter; Nur77 promoter with mutant MRE): no effect
depolarization-induced expression of the WT Nur77-luciferase reporter gene (Nur77 promoter; Nur77 promoter with wild type MRE): prevented
Molecule: cyclosporin A
depolarization-induced dephosphorylation of MEF2A at Ser408 (MEF2A Ser408): blocked
acetylation of endogenous MEF2A (endogenous MEF2A; depolarized neurons): decreased
sumoylation of endogenous MEF2A (endogenous MEF2A; depolarized neurons (25 mM KCl)): increased

B1: PIASx: MEF2A SUMO E3 ligase; PIASxα and PIASxβ isoforms collectively (protein, UniProt O75928 1-621, looked up)
E3 SUMO-protein ligase PIAS2: MADFEELRNMVSSFRVSELQVLLGFAGRNKSGRKHDLLMRALHLLKSGCSPAVQIKIRELYRRRYPRTLEGLSDLSTIKSSVFSLDGGSSPVEPDLAVAGIHSLPSTSVTPHSPSSPVGSVLLQDTKPTFEMQQPSPPIPPVHPDVQLKNLPFYDVLDVLIKPTSLVQSSIQRFQEKFFIFALTPQQVREICISRDFLPGGRRDYTVQVQLRLCLAETSCPQEDNYPNSLCIKVNGKLFPLPGYAPPPKNGIEQKRPGRPLNITSLVRLSSAVPNQISISWASEIGKNYSMSVYLVRQLTSAMLLQRLKMKGIRNPDHSRALIKEKLTADPDSEIATTSLRVSLMCPLGKMRLTIPCRAVTCTHLQCFDAALYLQMNEKKPTWICPVCDKKAAYESLILDGLFMEILNDCSDVDEIKFQEDGSWCPMRPKKEAMKVSSQPCTKIESSSVLSKPCSVTVASEASKKKVDVIDLTIESSSDEEEDPPAKRKCIFMSETQSSPTKGVLMYQPSSVRVPSVTSVDPAAIPPSLTDYSVPFHHTPISSMSSDLPGLDFLSLIPVDPQYCPPMFLDSLTSPLTASSTSVTTTSSHESSTHVSSSSSRSETGVITSSGSNIPDIISLD
MRE-dependent transcription (luciferase reporter) [1]: potently inhibited
dendritic claw number on expression of the construct ([2]; cerebellar slices transfected with expression plasmid vs control vector): robustly increased

B2: PIASx-Res: wild type PIASx protein expressed from cDNA resistant to piasx2 hpRNAs (protein, UniProt O75928 1-621, looked up)
E3 SUMO-protein ligase PIAS2: MADFEELRNMVSSFRVSELQVLLGFAGRNKSGRKHDLLMRALHLLKSGCSPAVQIKIRELYRRRYPRTLEGLSDLSTIKSSVFSLDGGSSPVEPDLAVAGIHSLPSTSVTPHSPSSPVGSVLLQDTKPTFEMQQPSPPIPPVHPDVQLKNLPFYDVLDVLIKPTSLVQSSIQRFQEKFFIFALTPQQVREICISRDFLPGGRRDYTVQVQLRLCLAETSCPQEDNYPNSLCIKVNGKLFPLPGYAPPPKNGIEQKRPGRPLNITSLVRLSSAVPNQISISWASEIGKNYSMSVYLVRQLTSAMLLQRLKMKGIRNPDHSRALIKEKLTADPDSEIATTSLRVSLMCPLGKMRLTIPCRAVTCTHLQCFDAALYLQMNEKKPTWICPVCDKKAAYESLILDGLFMEILNDCSDVDEIKFQEDGSWCPMRPKKEAMKVSSQPCTKIESSSVLSKPCSVTVASEASKKKVDVIDLTIESSSDEEEDPPAKRKCIFMSETQSSPTKGVLMYQPSSVRVPSVTSVDPAAIPPSLTDYSVPFHHTPISSMSSDLPGLDFLSLIPVDPQYCPPMFLDSLTSPLTASSTSVTTTSSHESSTHVSSSSSRSETGVITSSGSNIPDIISLD
modifications: expressed from hpRNA-resistant cDNA
notes: wild type PIASx protein expressed from cDNA resistant to piasx2 hpRNAs
number of claws restored, relative to control U6 transfected cerebellar slices ([2]; expression in the background of piasx2 RNAi): ~80%
